Read-outs that look alike come from different tables or passages of the source.
Key:
HeLa cell line = experiment: In vitro antitumor MTT assay, HeLa; type: cell-based
Method: (§1) The antitumor activity was performed by using the tetrazolium salt 3-(4,5-dimethyl-2-thiazolyl)-2,5-diphenyl-2H-tetrazolium bromide (MTT) assay in accordance with an established method.
(§2) Compounds 3a–c, 4a,b, 5a,b, 6a,b, 7a–e, 8, 9a–c, 10, 11, 12a–c, 13, and 14 were screened for their in vitro antitumor activity by using the standard 3-(4,5-dimethylthiazol-2-yl)-2,5-diphenyltetrazolium bromide (MTT) assay against five human cancers: HePG2, HCT-116, MCF-7, PC3, and HeLa cell lines. […].

PC3 cell line = experiment: In vitro antitumor MTT assay, PC3; type: cell-based
Method: (§3) The antitumor activity was performed by using the tetrazolium salt 3-(4,5-dimethyl-2-thiazolyl)-2,5-diphenyl-2H-tetrazolium bromide (MTT) assay in accordance with an established method[39].

MCF-7 cell line = experiment: In vitro antitumor MTT assay, MCF-7; type: cell-based
Method: as §3

HCT-116 cell line = experiment: In vitro antitumor MTT assay, HCT-116; type: cell-based
Method: as §3

[1] = test system: HePG2, HCT-116, MCF-7, PC3, and HeLa cell lines; experiment: In vitro antitumor MTT assay, panel of five human cancer cell lines (text summaries); type: cell-based; conditions: read-out: IC50, antitumor activity, range over the tested cancer cell lines
Method: as §1, §2

TNF-α = TNF-α inhibition assay (human-specific sandwich ELISA); type: biochemical; conditions: read-out: IC50 (µM) TNFα inhibition
Method: The concentration of TNF-α was measured by human-specific sandwich enzyme-linked immunosorbent assay (ELISA) in accordance with the manufacturer’s instructions (no. 589201, Cayman Chemical, Ann Arbour, MI)[43]^,[44].
TNF-α has been reported as a target for cancer treatment; presently, TNF antagonists are under clinical investigation in phase I and II trials as single agents for cancer therapy. […].

HePG2 cell line = experiment: In vitro antitumor MTT assay, HePG2; type: cell-based
Method: as §1, §2

COX-2 = biological target: T1, COX-2 (Ovis aries, UniProt P79208); experiment: Colorimetric COX-2 inhibition assay (Cayman kit 560101); type: biochemical; conditions: means of three determinations
T1 construct: purchased Cayman Chemical 560101
T1 sequence (P79208 17-603): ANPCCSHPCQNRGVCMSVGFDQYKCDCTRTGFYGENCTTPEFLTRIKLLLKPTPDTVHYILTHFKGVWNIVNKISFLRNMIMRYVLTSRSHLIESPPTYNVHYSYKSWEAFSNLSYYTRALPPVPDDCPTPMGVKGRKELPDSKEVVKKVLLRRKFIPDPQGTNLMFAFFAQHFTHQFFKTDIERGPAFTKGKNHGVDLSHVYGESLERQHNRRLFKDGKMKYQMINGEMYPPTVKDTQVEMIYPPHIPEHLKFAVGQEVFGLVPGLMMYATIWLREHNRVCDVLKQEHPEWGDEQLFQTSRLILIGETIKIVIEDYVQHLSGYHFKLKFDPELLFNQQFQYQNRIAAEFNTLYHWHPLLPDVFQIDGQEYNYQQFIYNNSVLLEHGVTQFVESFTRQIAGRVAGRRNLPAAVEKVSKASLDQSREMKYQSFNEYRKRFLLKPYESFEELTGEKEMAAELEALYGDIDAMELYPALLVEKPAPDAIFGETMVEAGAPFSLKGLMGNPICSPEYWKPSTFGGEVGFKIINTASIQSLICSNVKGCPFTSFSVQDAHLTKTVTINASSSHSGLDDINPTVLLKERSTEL

PDE4B = PDE4B (Homo sapiens, UniProt Q07343); experiment: PDE4B inhibition assay; type: biochemical; conditions: read-out: IC50 (µM) PDE-4B inhibition
PDE4B, sequence (Q07343 whole entry): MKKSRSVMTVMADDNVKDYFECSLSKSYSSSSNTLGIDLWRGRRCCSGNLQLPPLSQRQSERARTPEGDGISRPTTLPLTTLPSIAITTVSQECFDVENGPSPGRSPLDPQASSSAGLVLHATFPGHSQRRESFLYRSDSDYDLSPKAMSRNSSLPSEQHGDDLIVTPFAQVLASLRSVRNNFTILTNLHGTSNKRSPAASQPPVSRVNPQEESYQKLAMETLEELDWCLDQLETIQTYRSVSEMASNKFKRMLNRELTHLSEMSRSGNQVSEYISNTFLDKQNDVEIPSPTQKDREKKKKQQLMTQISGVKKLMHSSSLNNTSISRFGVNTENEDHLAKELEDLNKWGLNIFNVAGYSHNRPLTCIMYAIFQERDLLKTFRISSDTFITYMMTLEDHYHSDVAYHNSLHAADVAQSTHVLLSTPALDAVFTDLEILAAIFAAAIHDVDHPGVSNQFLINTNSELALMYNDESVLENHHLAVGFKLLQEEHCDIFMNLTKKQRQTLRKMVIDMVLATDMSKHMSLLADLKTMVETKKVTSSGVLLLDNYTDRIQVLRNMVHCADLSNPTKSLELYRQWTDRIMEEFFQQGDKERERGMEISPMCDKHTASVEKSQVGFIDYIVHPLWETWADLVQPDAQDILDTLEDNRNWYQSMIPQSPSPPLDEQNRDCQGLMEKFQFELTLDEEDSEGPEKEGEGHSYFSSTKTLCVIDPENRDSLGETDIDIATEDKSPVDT

[2] = Homo sapiens; read-out: IC50 (µM) HeLa
[3] = Homo sapiens, PC-3; read-out: IC50 (µM) PC3
[4] = Homo sapiens, MCF7; read-out: IC50 (µM) MCF-7
[5] = Homo sapiens, HCT-116; read-out: IC50 (µM) HCT-116
[6] = Homo sapiens, range over (all or some of) HePG2, HCT-116, MCF-7, PC3, HeLa
[7] = range over (all or some of) HePG2, HCT-116, MCF-7, PC3, HeLa
[8] = Homo sapiens, HepG2; read-out: IC50 (µM) HePG2

Structure (SMILES) | IC50 (TNF-α) | IC50 (HeLa cell line; [2]) | melting point | IC50 (PC3 cell line; [3]) | IC50 (MCF-7 cell line; [4]) | IC50 (COX-2) | IC50 (HCT-116 cell line; [5]) | IC50 [1, 6] | IC50 [1, 7] | IC50 (HePG2 cell line; [8]) | IC50 (PDE4B) | IC50 (HeLa cell line; Homo sapiens, read-out: IC50 (µM) HeLa) | IC50 (PC3 cell line; Homo sapiens, PC-3, read-out: IC50 (µM) PC3) | IC50 (MCF-7 cell line; Homo sapiens, MCF7, read-out: IC50 (µM) MCF-7) | IC50 (HCT-116 cell line; Homo sapiens, HCT-116, read-out: IC50 (µM) HCT-116) | IC50 ([1]; Homo sapiens) | IC50 (HePG2 cell line; Homo sapiens, HepG2, read-out: IC50 (µM) HePG2)
Cc1ccc(-c2cc(C(F)(F)F)nn2-c2ccc(S(N)(=O)=O)cc2)cc1 [Celecoxib, celecoxib, reference compound] | 6.44 µM |  |  |  |  |  |  |  |  |  |  | 36.1 ± 2.8 µM | 30.7 ± 2.7 µM | 31.3 ± 2.5 µM | 29.5 ± 2.1 µM | 25.6 to 36.1 µM | 25.6 ± 2.3 µM
COc1ccc(-c2nc3c4ccccc4c4ccccc4c3n2-c2ccccc2)cc1OC1CCCC1 [Compound 7b, 2-(3-(Cyclopentyloxy)-4-methoxyphenyl)-1-phenyl-1H-phenanthro[9,10-d]imidazole] | 13.9 µM | 17.2 ± 1.5 µM | 295 to 297 °C | 22.9 ± 1.9 µM | 11.8 ± 1.3 µM | 24 µM | 19.7 ± 1.4 µM |  | 11.8 to 22.9 µM | 13.7 ± 1.2 µM | 5.65 µM |  |  |  |  |  | 
COc1ccc(-c2[nH]c(=S)[nH]c(=O)c2C#N)cc1OC1CCCC1 [Compound 13, 6-(3-(cyclopentyloxy)-4-methoxyphenyl)-4-oxo-2-thioxo-1,2,3,4-tetrahydropyrimidine-5-carbonitrile] | 6.72 µM | 5.86 ± 0.6 µM |  | 11.5 ± 1.1 µM | 6.93 ± 0.5 µM | 1.88 µM | 7.66 ± 0.6 µM | 5.86 to 20.1 µM |  | 8.71 ± 0.7 µM | 3.98 µM |  |  |  |  |  | 

Continued, in another order:

IC50 (TNF-α) | IC50 (HeLa cell line; [2]) | melting point | IC50 (PC3 cell line; [3]) | IC50 (MCF-7 cell line; [4]) | IC50 (COX-2) | IC50 (HCT-116 cell line; [5]) | IC50 [1, 6] | IC50 [1, 7] | IC50 (HePG2 cell line; [8]) | IC50 (PDE4B) | Structure (SMILES) | IC50 (HeLa cell line; Homo sapiens, read-out: IC50 (µM) HeLa) | IC50 (PC3 cell line; Homo sapiens, PC-3, read-out: IC50 (µM) PC3) | IC50 (MCF-7 cell line; Homo sapiens, MCF7, read-out: IC50 (µM) MCF-7) | IC50 (HCT-116 cell line; Homo sapiens, HCT-116, read-out: IC50 (µM) HCT-116) | IC50 ([1]; Homo sapiens) | IC50 (HePG2 cell line; Homo sapiens, HepG2, read-out: IC50 (µM) HePG2)
2.01 µM | 7.24 ± 0.7 µM | 253 to 255 °C | 9.18 ± 0.8 µM | 5.13 ± 0.3 µM | 3.34 µM | 4.38 ± 0.4 µM | 4.38 to 22.9 µM | 4.38 to 9.18 µM | 6.04 ± 0.5 µM | 5.62 µM | COc1ccc(C=C2CN(C)CCC2=O)cc1OC1CCCC1 [Compound 4a, 3-(3-(Cyclopentyloxy)-4-methoxybenzylidene)-1-methylpiperidin-4-one] |  |  |  |  |  | 
17.7 µM | 8.56 ± 0.9 µM | 249 to 251 °C | 14.3 ± 1.2 µM | 7.18 ± 0.8 µM | 1.08 µM | 9.48 ± 0.8 µM | 4.38 to 22.9 µM | 7.18 to 14.3 µM | 11 ± 1.1 µM | 11.6 µM | CCN1CCC(=O)C(=Cc2ccc(OC)c(OC3CCCC3)c2)C1 [Compound 4b, 3-(3-(Cyclopentyloxy)-4-methoxybenzylidene)-1-ethylpiperidin-4-one] |  |  |  |  |  | 

— publication PMC7144195, “Synthesis, antitumor activity, and molecular docking study of 2-cyclopentyloxyanisole derivatives: mechanistic study of enzyme inhibition” (Journal of Enzyme Inhibition and Medicinal Chemistry, 2020)
